In the experiment the target is T1, human MC5R (hMC5R) (Homo sapiens, UniProt P33032).
T1 construct: purchased Perkin Elmer RBXMC5M400UA
T1 sequence (P33032 whole entry): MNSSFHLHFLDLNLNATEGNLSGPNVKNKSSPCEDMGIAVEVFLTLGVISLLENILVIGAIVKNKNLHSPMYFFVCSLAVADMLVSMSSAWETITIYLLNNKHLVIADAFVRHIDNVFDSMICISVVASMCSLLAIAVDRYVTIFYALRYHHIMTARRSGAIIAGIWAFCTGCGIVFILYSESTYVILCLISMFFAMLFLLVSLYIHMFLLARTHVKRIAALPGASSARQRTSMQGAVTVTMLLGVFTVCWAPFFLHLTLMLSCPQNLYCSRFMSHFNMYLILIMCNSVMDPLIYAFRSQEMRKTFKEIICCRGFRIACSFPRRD
Nature of the experiment: Human MC5R radioligand binding assay (membranes, [125I] NDP-MSH displacement). The settings on record: hMC5R binding; tested as trifluoroacetate or hydrochloride salts, or free bases; read-out: MC5R radioligand IC50. How it is done: Assessments of compound binding to human MC5R (hMC5R) ) by displacement of an ^125I-labeled NDP-MSH receptor ligand peptide were performed essentially as described in the data sheets produced by Perkin Elmer to accompany their frozen hMC5R membranes (Perkin Elmer catalog number RBXMC5M400UA).
[^125I] NDP-MSH: radiolabeled in house and purified by HPLC:
• Na^125I (0.5 mCi, 17.4 Ci/mg) was added to 50 μL sodium phosphate (50 mM, pH7.4) in an eppendorf tube precoated with IODOGEN. After incubation for 10 mins the phosphate buffer containing the iodine was added to NDP-MSH (10 ul at 1 mg/mL) in a separate eppendorf tube. This was incubated for a further 10 mins. The iodinated NDP-MSH was purified by HPLC on a Zorbax SB 300 column using solvent A: 0.05% TFA and solvent B: 90% acetonitrile 0.045% TFA with a linear gradient, 0-67% B over 60 mins. […] Resuspended membranes were kept on ice until they were added to the wells of the plate. Binding Protocol for 400 microassays per vial: • Assays were performed in 96 well polypropylene plates. […] This was incubated for 1 hr at 37° C.
For the compound `N=C(N)NCCC[C@@H]1N[C@H](CNC(=O)c2ccc3ccccc3c2)CCN(CC(c2ccc(F)cc2)c2ccc(F)cc2)C1=O` [Compound 250, N-(((3S,5S)-1-(2,2-bis(4-fluorophenyl)ethyl)-3-(3-guanidinopropyl)-2-oxo-1,4-diazepan-5-yl)methyl)-2-naphthamide], the IC50 was < 100 nM.

On to `N=C(N)NCCC[C@@H]1N[C@H](CNC(=O)c2ccc3ccccc3c2)CCN(Cc2ccc3ccccc3c2)C1=O` [Compound 251, N-(((3S,5S)-3-(3-guanidinopropyl)-1-(naphthalen-2-ylmethyl)-2-oxo-1,4-diazepan-5-yl)methyl)-2-naphthamide], for which the IC50 was < 10000 nM.

Take `O=C(/C=C/c1ccc(Cl)cc1)NC[C@@H]1CCN(CC(c2ccccc2)c2ccccc2)C(=O)[C@H](CCCN2CCCC2)N1` [Compound 258, (E)-3-(4-chlorophenyl)-N-(((3S,5S)-1-(2,2-diphenylethyl)-2-oxo-3-(3-(pyrrolidin-1-yl)propyl)-1,4-diazepan-5-yl)methyl)acrylamide]: the IC50 is < 100 nM.

On to `NCC[C@@H]1N[C@H](CNC(=O)c2ccc3ccccc3c2)CCN(CC(c2ccccc2)c2ccccc2)C1=O` [Compound 260, N-(((3S,5S)-3-(2-aminoethyl)-1-(2,2-diphenylethyl)-2-oxo-1,4-diazepan-5-yl)methyl)-2-naphthamide], for which the IC50 is < 1000 nM.

On to `O=C(NC[C@@H]1CCN(CC(c2ccccc2)c2ccccc2)C(=O)[C@H](CCCN2CCCC2)N1)c1ccc2ccccc2c1` [Compound 261, N-(((3S,5S)-1-(2,2-diphenylethyl)-2-oxo-3-(3-(pyrrolidin-1-yl)propyl)-1,4-diazepan-5-yl)methyl)-2-naphthamide], for which the IC50 is < 100 nM.

As for `O=C(NC[C@@H]1CCN(CC(c2ccccc2)c2ccccc2)C(=O)[C@H](CCCN2CCC2)N1)c1ccc2ccccc2c1` [Compound 262, N-(((3S,5S)-3-(3-(azetidin-1-yl)propyl)-1-(2,2-diphenylethyl)-2-oxo-1,4-diazepan-5-yl)methyl)-2-naphthamide], the IC50 was < 100 nM.

Turning to `N=C(N)NCCC[C@@H]1N[C@H](CNC(=O)c2ccc3ccccc3c2)CCN(Cc2cccc3ccccc23)C1=O` [Compound 263, N-(((3S,5S)-3-(3-guanidinopropyl)-1-(naphthalen-1-ylmethyl)-2-oxo-1,4-diazepan-5-yl)methyl)-2-naphthamide], the IC50 is < 10000 nM.

As to `N=C(N)NCCC[C@@H]1N[C@H](CNC(=O)c2ccc3ccccc3c2)CCN(CCc2ccc3ccccc3c2)C1=O` [Compound 264, N-(((3S,5S)-3-(3-guanidinopropyl)-1-(2-(naphthalen-2-yl)ethyl)-2-oxo-1,4-diazepan-5-yl)methyl)-2-naphthamide], the IC50 is < 10000 nM.

With `CC(=O)N[C@H](CN1CC[C@@H](CNC(=O)c2ccc3ccccc3c2)N[C@@H](CCCNC(=N)N)C1=O)c1ccccc1` [Compound 265, N-(((3S,5S)-1-((S)-2-acetamido-2-phenylethyl)-3-(3-guanidinopropyl)-2-oxo-1,4-diazepan-5-yl)methyl)-2-naphthamide], the IC50 was < 10000 nM.

Turning to `O=C(C=Cc1ccccc1)NC[C@@H]1CCN(CC(c2ccccc2)c2ccccc2)C(=O)[C@H](CCCN2CCCCC2)N1` [Compound 266, N-(((3S,5S)-1-(2,2-diphenylethyl)-2-oxo-3-(3-(piperidin-1-yl)propyl)-1,4-diazepan-5-yl)methyl)cinnamamide], the IC50 was < 100 nM.

With `N=C(N)NCCC[C@@H]1N[C@H](CNC(=O)c2ccc3ccccc3c2)CCN(C[C@@H](NC(=O)C2CCC2)c2ccccc2)C1=O` [Compound 269, N-(((3S,5S)-1-((S)-2-(cyclobutanecarboxamido)-2-phenylethyl)-3-(3-guanidinopropyl)-2-oxo-1,4-diazepan-5-yl)methyl)-2-naphthamide], the IC50 was < 1000 nM.

As for `N=C(N)NCCC[C@@H]1N[C@H](CNC(=O)c2ccc3ccccc3c2)CCN(C[C@@H](NC(=O)C2CCCCC2)c2ccccc2)C1=O` [Compound 270, N-(((3S,5S)-1-((S)-2-(cyclohexanecarboxamido)-2-phenylethyl)-3-(3-guanidinopropyl)-2-oxo-1,4-diazepan-5-yl)methyl)-2-naphthamide], the IC50 is < 10000 nM.

Consider `NC[C@@H]1N[C@H](CNC(=O)c2ccc3ccccc3c2)CCN(CC(c2ccccc2)c2ccccc2)C1=O` [Compound 271, N-(((3S,5S)-3-(aminomethyl)-1-(2,2-diphenylethyl)-2-oxo-1,4-diazepan-5-yl)methyl)-2-naphthamide], for which the IC50 is < 1000 nM.

Regarding `O=C(NC[C@@H]1CCN(CC(c2ccccc2)c2ccccc2)C(=O)[C@H](CN2CCCCC2)N1)c1ccc2ccccc2c1` [Compound 275, N-(((3S,5S)-1-(2,2-diphenylethyl)-2-oxo-3-(piperidin-1-ylmethyl)-1,4-diazepan-5-yl)methyl)-2-naphthamide], the IC50 is < 100 nM.

For the compound `NCC[C@@H]1N[C@H](CNC(=O)C=Cc2ccccc2)CCN(CC(c2ccccc2)c2ccccc2)C1=O` [Compound 279, N-(((3S,5S)-3-(2-aminoethyl)-1-(2,2-diphenylethyl)-2-oxo-1,4-diazepan-5-yl)methyl)cinnamamide], the IC50 was < 1000 nM.

With `O=C(C=Cc1ccccc1)NC[C@@H]1CCN(CC(c2ccccc2)c2ccccc2)C(=O)[C@H](CCN2CCCCC2)N1` [Compound 283, N-(((3S,5S)-1-(2,2-diphenylethyl)-2-oxo-3-(2-(piperidin-1-yl)ethyl)-1,4-diazepan-5-yl)methyl)cinnamamide], the IC50 was < 100 nM.

For `O=C(/C=C/c1ccc(F)cc1)NC[C@@H]1CCN(CC(c2ccccc2)c2ccccc2)C(=O)[C@H](CCN2CCCCC2)N1` [Compound 284, (E)-N-(((3S,5S)-1-(2,2-diphenylethyl)-2-oxo-3-(2-(piperidin-1-yl)ethyl)-1,4-diazepan-5-yl)methyl)-3-(4-fluorophenyl)acrylamide], the IC50 is < 10 nM.

Regarding `Cc1ccc(/C=C/C(=O)NC[C@@H]2CCN(CC(c3ccccc3)c3ccccc3)C(=O)[C@H](CCN3CCCCC3)N2)cc1` [Compound 285, (E)-N-(((3S,5S)-1-(2,2-diphenylethyl)-2-oxo-3-(2-(piperidin-1-yl)ethyl)-1,4-diazepan-5-yl)methyl)-3-p-tolylacrylamide], the half-inhibitory concentration (IC50) was < 100 nM.

Regarding `Cc1cc(C)cc(CN2CC[C@@H](CNC(=O)c3ccc4ccccc4c3)N[C@@H](CCCNC(=N)N)C2=O)c1` [Compound 286, N-(((3S,5S)-1-(3,5-dimethylbenzyl)-3-(3-guanidinopropyl)-2-oxo-1,4-diazepan-5-yl)methyl)-2-naphthamide], the IC50 was < 1000 nM.

Turning to `N=C(N)NCCC[C@@H]1N[C@H](CNC(=O)c2ccc3ccccc3c2)CCN(C[C@@H](NC(=O)c2ccccc2)c2ccccc2)C1=O` [Compound 287, N-(((3S,5S)-1-((S)-2-benzamido-2-phenylethyl)-3-(3-guanidinopropyl)-2-oxo-1,4-diazepan-5-yl)methyl)-2-naphthamide], the IC50 was < 1000 nM.

For `N=C(N)NCCC[C@@H]1N[C@H](CNC(=O)c2ccc3ccccc3c2)CCN(C[C@H](NC(=O)c2ccccc2)c2ccccc2)C1=O` [Compound 288, N-(((3S,5S)-1-((R)-2-benzamido-2-phenylethyl)-3-(3-guanidinopropyl)-2-oxo-1,4-diazepan-5-yl)methyl)-2-naphthamide], the IC50 is < 10000 nM.

Turning to `COC(CN1CC[C@@H](CNC(=O)c2ccc3ccccc3c2)N[C@@H](CCCNC(=N)N)C1=O)c1ccccc1` (stereo partly drawn) [Compound 289, N-(((3S,5S)-3-(3-guanidinopropyl)-1-(2-methoxy-2-phenylethyl)-2-oxo-1,4-diazepan-5-yl)methyl)-2-naphthamide], the IC50 was < 1000 nM.

As for `CCCOC(CN1CC[C@@H](CNC(=O)c2ccc3ccccc3c2)N[C@@H](CCCNC(=N)N)C1=O)c1ccccc1` (stereo partly drawn) [Compound 290, N-(((3S,5S)-3-(3-guanidinopropyl)-2-oxo-1-(2-phenyl-2-propoxyethyl)-1,4-diazepan-5-yl)methyl)-2-naphthamide], the IC50 was < 1000 nM.

For `N=C(N)NCCC[C@@H]1N[C@H](CNC(=O)c2ccc3ccccc3c2)CCN(CC(OCc2ccccc2)c2ccccc2)C1=O` (stereo partly drawn) [Compound 291, N-(((3S,5S)-1-(2-(benzyloxy)-2-phenylethyl)-3-(3-guanidinopropyl)-2-oxo-1,4-diazepan-5-yl)methyl)-2-naphthamide], the IC50 was < 1000 nM.

On to `C=CCOC(CN1CC[C@@H](CNC(=O)c2ccc3ccccc3c2)N[C@@H](CCCNC(=N)N)C1=O)c1ccccc1` (stereo partly drawn) [Compound 292, N-(((3S,5S)-1-(2-(allyloxy)-2-phenylethyl)-3-(3-guanidinopropyl)-2-oxo-1,4-diazepan-5-yl)methyl)-2-naphthamide], for which the 50% inhibitory concentration (IC50) is < 1000 nM.

As to `CC(=O)NCCC[C@@H]1N[C@H](CNC(=O)/C=C/c2ccc(C)cc2)CCN(CC(c2ccccc2)c2ccccc2)C1=O` [Compound 293, (E)-N-(((3S,5S)-3-(3-acetamidopropyl)-1-(2,2-diphenylethyl)-2-oxo-1,4-diazepan-5-yl)methyl)-3-p-tolylacrylamide], the IC50 was < 1000 nM.

Consider `Cc1ccc(/C=C/C(=O)NC[C@@H]2CCN(CC(c3ccccc3)c3ccccc3)C(=O)[C@H](CCCNC(=O)C3CCCCC3)N2)cc1` [Compound 294, N-(3-((2S,7S)-4-(2,2-diphenylethyl)-3-oxo-7-(((E)-3-p-tolylacrylamido)methyl)-1,4-diazepan-2-yl)propyl)cyclohexanecarboxamide], for which the IC50 is < 1000 nM.

The values above are taken from patent publication US8008291B2 (Mimetica Pty Ltd, priority 2008, dated 2011).
